Laboratory results from patent publication US4774248A, “Methods of treating depression and depressive states using 5-phenyl-1,4,5,6-tetrahydropyrimidine derivatives” (priority 1985, dated 1988).
Entries after “also recorded” stand apart in the source; their conditions may differ.

Assays:
[1] = tested on: mice; assay: Motility reduced by habituation to the enclosure; type: in vivo; conditions: i.p.
Experimental: (§1) The results of toxicological and neuropsychopharmacological tests which were carried out with the products according to the invention have been summarized below. In these tests, solutions of the said products in distilled water were administered intraperitoneally in a volume of 20 ml/kg to male mice and in a volume of 5 ml/kg to male rats.
After they have stayed in the actimeters for 18 hours, the mice (6 per dose, 12 control animals) receive CRL 41 378. They are immediately returned to their respective enclosures and, half an hour later, their motility is recorded for 30 minutes.

[2] = tested on: mice; assay: Four plate test; type: in vivo; conditions: i.p.
Experimental: as §1
(§2) The test is performed on groups of 10 mice 30 minutes after the administration of CRL 41 378.

[3] = tested on: mice; assay: Spontaneous motility (actimeter); type: in vivo; conditions: i.p., hydrochloride
Experimental: as §1
0.5 h after they have received CRL 41 378, the mice (6 per dose, 12 control animals) are placed in an actimeter, where their motility is recorded for 30 minutes.

[4] = tested on: trembling and head twitches induced by 5-hydroxytryptophan (5-HTP); assay: Interaction with 5-hydroxytryptophan in association with an MAOI (nialamide); type: in vivo, male mice
Experimental: The purpose of the procedure used is to investigate the activity of each product according to the invention as regards the trembling induced by 5-hydroxytryptophan (5-HTP) in association with an MAOI (in this case nialamide).
Each test product, in solution in distilled water, is administered intraperitoneally in a volume of 20 ml/kg to male mice.
Groups of 10 mice receive nialamide (20 mg/kg, administered gastrically) at time T-18 h, each test product at time T-0.5 h and then (±)-5-HTP (20 mg/kg, administered intraperitoneally) at time T. Immediately after the injection of the (±)-5-HTP, the mice are individually placed in transparent plastic boxes. The generalized trembling, the partial trembling and the head twitches are noted on a yes/no basis for 2 h.

[5] = tested on: anesthetized dogs; assay: Cardiovascular study in anesthetized dogs; type: in vivo; conditions: route not specified
[6] = tested on: mice; assay: Asphyxiant anoxia caused by gallamine triiodoethylate; type: in vivo; conditions: i.p., gallamine triiodoethylate 32 mg/kg
Experimental: as §1
Groups of 10 mice receive CRL 41 378 30 minutes before the intraperitoneal administration of 32 mg/kg of gallamine triiodoethylate (reference curarizing agent).

[7] = tested on: hypothermia, trembling and peripheral cholinergic symptoms induced by oxotremorine; assay: Interaction with oxotremorine; type: in vivo; conditions: mice, i.p.
How it was run: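 Male mice, groups of 6, given the compound intraperitoneally in distilled water (20 ml/kg) 0.5 h before 0.5 mg/kg oxotremorine i.p. Hypothermia, trembling and peripheral cholinergic symptoms were assessed.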

[8] = tested on: stereotypies induced by apomorphine; assay: Interaction with apomorphine in rats; type: in vivo; conditions: i.p., apomorphine 0.5 mg/kg s.c., hydrochloride
Experimental: as §1
CRL 41 378 is administered to groups of 12 rats 0.5 h before the subcutaneous injection of 0.5 mg/kg of apomorphine.

[9] = tested on: mice; assay: Traction; type: in vivo; conditions: i.p.
Experimental: as §1, §2

[10] = tested on: mice; assay: Intergroup aggressiveness; type: in vivo
How it was run: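 Male mice housed 3 weeks per group in cage halves split by an opaque partition; groups of 3 given CRL 41 378 i.p. in distilled water.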

[11] = tested on: depressions and depressive states; assay: Clinical trials in depression and depressive states; type: in vivo, human; conditions: daily oral administration to adults
Experimental: The clinical trials which have been undertaken have made it possible to determine that the daily dose to be administered orally to adults, in the treatment of depressions and depressive states, is generally between 3 and 120 mg for the products of the formulae Ia and Ib according to the invention.

[12] = tested on: hypothermia induced by apomorphine; assay: Interaction with apomorphine by gastric administration; type: in vivo; conditions: Mus musculus, male mice, apomorphine 16 mg/kg s.c., read-out: dose as from which the hypothermia induced by apomorphine is opposed
Experimental: Each test product is administered gastrically to male mice, in a volume of 20 ml/kg, 0.50 h before the subcutaneous injection of 16 mg/kg of apomorphine.

[13] = tested on: mice; assay: Motility reduced by hypoxic aggression (acute hypobaric anoxia); type: in vivo; conditions: i.p.
Experimental: In these tests, solutions of the said products in distilled water were administered intraperitoneally in a volume of 20 ml/kg to male mice and in a volume of 5 ml/kg to male rats.

[14] = tested on: pregnant rabbits; assay: Teratogenic effects on pregnant rabbits; type: in vivo
[15] = tested on: mice; assay: Electric shock; type: in vivo; conditions: i.p.
Experimental: as §1, §2

[16] = tested on: rats; assay: Overall behavior and reactivities in rats; type: in vivo; conditions: i.p.
How it was run: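 Male mice (20 ml/kg) and male rats (5 ml/kg) dosed intraperitoneally with compound in distilled water.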

[17] = tested on: hypothermia and ptosis induced by reserpine; assay: Interaction with reserpine; type: in vivo; conditions: mice, i.p.
How it was run: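 Reserpine 2.5 mg/kg i.p. given to male mice in groups of 12; test compound dissolved in distilled water and given i.p. (20 ml/kg) four hours later.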

[18] = tested on: sleep induced by barbital; assay: Interaction with barbital; type: in vivo; conditions: mice, i.p.; barbital 220 mg/kg
Experimental: as §1
Half an hour after the administration of CRL 41 378, groups of 10 mice receive an intraperitoneal injection of barbital (220 mg/kg).

[19] = tested on: hypothermia, righting behavior and stereotypies induced by apomorphine; assay: Interaction with apomorphine in mice; type: in vivo
How it was run: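 Male mice, groups of 6, given test compound intraperitoneally in distilled water (20 ml/kg) 30 min before subcutaneous apomorphine at 1 or 16 mg/kg. Hypothermia, righting behaviour and stereotypies scored.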

[20] = i.p., nialamide + (±)-5-HTP, male mice
[21] = reserpine 2.5 mg/kg, hydrochloride

Q: Which results are given for CC(=O)N1C=NCC(c2ccccc2)C1.Cl (stereo not shown) [CRL 41 378, 1-acetyl-5-phenyl-1,4,5,6-tetrahydropyrimidine hydrochloride]?
A: resumption in the motor activity of mice accustomed to their enclosure [1]: does not cause a resumption in the motor activity of mice accustomed to their enclosure; number of punished passes [2]: does not modify the number of punished passes; spontaneous motor activity [3]: at a dose of 16 mg/kg and especially at a dose of 64 mg/kg, CRL 41 378 decreases the spontaneous motor activity of the mice; also recorded: a substantial decrease in the spontaneous motor activity of mice; analogy with β-adrenergic stimulants in the 5-HTP procedure ([4]; 5-HTP + MAOI): more closely resembles fenoterol; intensity of potentiation of 5-HTP effects ([4]; higher doses, 5-HTP + MAOI, male mice): the potentiation being very intense as from a dose of 16 mg/kg; head twitches [4, 20]: moderately potentiates the head twitches; partial trembling [4, 20]: distinctly potentiates the partial trembling; blood flows through the femoral and vertebral arteries [5]: decreases the blood flows through the femoral and vertebral arteries; time taken for convulsions and death / lethal effects of gallamine triiodoethylate [6]: at the highest dose used (64 mg/kg), CRL 41 378 causes a moderate decrease in the time taken for convulsions and death to occur; minimal effective dose ([7]; Mus musculus, ip, read-out: dose as from which the hypothermia induced by oxotremorine is antagonized): ≥ 0.5 mg/kg; action on signs of peripheral cholinergic stimulation induced by oxotremorine ([7]; oxotremorine 0.5 mg/kg): practically no modification of the signs of peripheral cholinergic stimulation induced by oxotremorine; action on trembling induced by oxotremorine ([7]; oxotremorine 0.5 mg/kg): does not modify the intensity of the trembling induced by oxotremorine; action on hypothermia induced by oxotremorine ([7]; oxotremorine 0.5 mg/kg, hydrochloride): very intense at doses of 2 and 4 mg/kg and is then less significant for the highest doses used (16 and 64 mg/kg); also recorded: antagonism of the hypothermia induced by apomorphine, reserpine and oxotremorine in mice; action on stereotypies induced by apomorphine [8]: at the two highest doses used (8 and 32 mg/kg), CRL 41 378 seems to cause a moderate decrease in the stereotypies induced by apomorphine; also recorded: moderate antagonism of the stereotyped movements induced by apomorphine in rats; motor incoordination / incapacity [9]: does not cause motor incoordination; minimal effective dose ([10]; Mus musculus, ip, read-out: dose as from which the intergroup aggressiveness is decreased): ≥ 0.5 mg/kg; intergroup aggressiveness (number of fights) ([10]; mice, i.p., hydrochloride): decreases the intergroup aggressiveness as from a dose of 0.5 mg/kg but especially at doses of 2 mg/kg, 4 mg/kg and 16 mg/kg; also recorded: a decrease in the intergroup aggressiveness of mice (at doses which do not decrease the spontaneous motor activity); results in human therapy (depression) [11]: excellent results; minimal effective dose [12]: ≥ 0.5 mg/kg; lethal effects of hypobaric anoxia [13]: At a dose of 64 mg/kg, CRL 41 378 aggravates the effects of hypobaric anoxia and causes the death of all the animals treated; motor recovery after acute hypobaric hypoxia [13]: at doses of 1 mg/kg, 4 mg/kg and 16 mg/kg, CRL 41 378 does not cause a modification of the motor recovery; teratogenic effects [14]: devoid of harmful teratogenic effects on pregnant rabbits; convulsant effects of electric shock [15]: without modifying the convulsant effects; lethal effects of electric shock [15]: At the two highest doses studied (16 and especially 64 mg/kg), CRL 41 378 strongly aggravates the lethal effects of electric shock; overall behavior and reactivities ([16]; 0.5 mg/kg): moderate mydriasis for 2 h, the maximum intensity being reached 0.5 h after administration; overall behavior and reactivities ([16]; 2 mg/kg): mydriasis for 3 h, the maximum intensity also being reached 0.5 h after administration; overall behavior and reactivities ([16]; 32 mg/kg, hydrochloride): a decrease in the breathing rate and muscle tonus for 1 h; also recorded: exophthalmos for 1 h; also recorded: piloerection for 2 h; also recorded: salivation appearing 0.5 h after administration; also recorded: vasodilation of the paws and snout for 0.5 h; also recorded: mydriasis for 2 h, the maximum intensity being reached 0.5 h after administration; minimal effective dose ([17]; Mus musculus, ip, 24 h after administration, read-out: dose as from which the ptosis induced by reserpine is moderately decreased): ≥ 0.5 mg/kg; action on hypothermia induced by reserpine [17, 21]: at doses of 0.5 mg/kg to 4 mg/kg, CRL 41 378 antagonizes the hypothermia induced by reserpine; also recorded: this effect tends to decrease to nothing at a dose of 16 mg/kg; also recorded: the highest dose used (64 mg/kg) being inactive towards the hypothermia induced by reserpine; also recorded: antagonism of the hypothermia induced by apomorphine, reserpine and oxotremorine in mice; action on ptosis induced by reserpine [17, 21]: moderate decrease in the ptosis induced by reserpine 24 h after administration; also recorded: absence of distinct antagonism of the ptosis induced by reserpine; duration of the sleep induced by barbital [18]: practically no modification of the duration of the sleep induced by barbital; minimal effective dose ([19]; Mus musculus, ip, read-out: dose as from which the hypothermia induced by apomorphine is antagonized): ≥ 0.5 mg/kg; action on righting behavior and stereotypies due to apomorphine ([19]; i.p.): practically no modification of the righting behavior and stereotypies due to apomorphine; action on hypothermia induced by apomorphine ([19]; i.p., hydrochloride): antagonizes the hypothermia induced by apomorphine; also recorded: antagonism of the hypothermia induced by apomorphine, reserpine and oxotremorine in mice
